Assay results taken from publication PMC9792776 (Frontiers in Pharmacology, 2022).

Tests used:
[1] = In vitro Caco-2 cell permeability; format: in vitro ADME; conditions: human
Source text: The first-order absorption model has different absorption rate constants (ka) and fraction available from dosage form (fa) to simulate absorption processes in fasting and fed states. […] Caco-2 (human colorectal adenocarcinoma) cells are used to model the intestinal epithelial barrier. The Simcyp (Version 19.0, Certara Inc., Sheffield, UK) minimal PBPK, which treats all organs other than the intestine and liver as a single compartment ([Rowland Yeo et al., 2010]), was selected, along with a single adjusting compartment (SAC) distribution model. The SAC is a nonphysiologic compartment that permits adjustment to the drug concentration profile in the systemic compartment ([Ke et al., 2016]).

CYP2C9 = CYP2C9 (Homo sapiens, UniProt P11712); conditions: recombinant enzyme
Chain of CYP2C9 (P11712 whole entry): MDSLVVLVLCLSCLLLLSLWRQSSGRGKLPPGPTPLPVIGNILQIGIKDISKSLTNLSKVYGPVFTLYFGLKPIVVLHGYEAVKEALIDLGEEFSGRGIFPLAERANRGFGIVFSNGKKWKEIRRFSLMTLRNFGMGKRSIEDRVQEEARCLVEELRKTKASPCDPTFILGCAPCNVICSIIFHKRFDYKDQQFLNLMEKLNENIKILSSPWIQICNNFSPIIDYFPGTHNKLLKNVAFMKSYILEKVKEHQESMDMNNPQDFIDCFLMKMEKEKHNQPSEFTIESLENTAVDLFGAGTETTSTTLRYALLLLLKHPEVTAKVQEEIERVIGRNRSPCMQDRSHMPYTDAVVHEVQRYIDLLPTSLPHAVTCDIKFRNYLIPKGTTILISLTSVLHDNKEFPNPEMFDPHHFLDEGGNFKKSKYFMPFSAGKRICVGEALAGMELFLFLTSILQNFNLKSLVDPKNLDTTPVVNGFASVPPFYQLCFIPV

CYP3A4 = CYP3A4 (Homo sapiens, UniProt P08684); assay: Intrinsic clearance in human recombinant CYP3A4
Chain of CYP3A4 (P08684 whole entry): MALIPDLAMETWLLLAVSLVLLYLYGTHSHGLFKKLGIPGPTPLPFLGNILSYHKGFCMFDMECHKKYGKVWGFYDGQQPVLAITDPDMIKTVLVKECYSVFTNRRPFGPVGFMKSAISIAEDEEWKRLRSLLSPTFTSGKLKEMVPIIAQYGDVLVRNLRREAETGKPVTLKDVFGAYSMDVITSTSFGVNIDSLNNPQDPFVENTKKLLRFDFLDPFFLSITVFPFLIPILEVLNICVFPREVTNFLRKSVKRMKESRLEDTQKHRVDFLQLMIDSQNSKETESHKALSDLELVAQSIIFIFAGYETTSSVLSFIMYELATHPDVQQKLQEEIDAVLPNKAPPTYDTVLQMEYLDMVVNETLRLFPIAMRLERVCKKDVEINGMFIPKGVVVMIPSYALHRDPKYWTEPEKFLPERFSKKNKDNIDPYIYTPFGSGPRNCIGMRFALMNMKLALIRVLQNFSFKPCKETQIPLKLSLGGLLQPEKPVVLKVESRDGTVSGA

SMILES: CC(C)NCC(O)COc1cccc2ccccc12 (stereo not drawn) [Propranolol, propranolol, reference compound]
- Papp [1]: 5.68 ×10⁻⁶ cm/s

SMILES: O=C(O)Cc1ccccc1Nc1c(Cl)cccc1Cl [Diclofenac]
- CLint CYP2C9 (CYP2C9): 2.965 µL/min/pmol CYP

SMILES: Cc1ncc2n1-c1ccc(Cl)cc1C(c1ccccc1F)=NC2 [Midazolam, reference compound]
- CLint CYP3A4 (CYP3A4): 3.083 µL/min/pmol CYP
